From US20060121499A1, “Methods of identifying glucocorticoids without the detrimental side effects of bone loss” (priority 2004, published 2006)
Starred links: 1 amine or outer side, 2 acyl side, 3 side chain; linkers in the order of their positions; H or OH if unused. Positions of bridges follow the written chain, without caps; N, C: chain ends. Non-standard residues stand in square brackets, D forms with d. Residues, ends and D or L forms follow the SMILES beside them. Chains are numbered I, II in the order given. No end group written: not given here. Actinocin(9to1) = Cc1c2oc3c(C)ccc(C(=O)[*:1])c3nc-2c(C(=O)[*:2])c(N)c1=O; NMeV = CN[C@H](C(=O)O)C(C)C; Sar = CNCC(=O)O

How the values were obtained:
MLO-Y4 osteocytic cells [1] = test: Quantification of apoptotic cells (nuclear morphology, nGFP) in MLO-Y4 osteocytic cells; format: cell-based, murine; settings: for effect on dexamethasone (glucocorticoid)-induced apoptosis: inhibitor added 30 minute before dexamethasone 10^−6 M, 6 hour treatment
Description: The murine long bone-derived osteocytic cell line MLO-Y4 was kindly provided by Dr. Lynda Bonewald (University of Missouri-Kansas City, Kansas City, Mo.). Cells were cultured in phenol red-free AMEM supplemented with 2.5% FBS, 2.5% bovine calf serum, 100 U/ml penicillin and 100 μg/ml streptomycin. Cells were plated at 1-2×10^4 cells/cm^2 on collagen type I (Sigma Chemical Co., St. Louis, Mo.) coated plates, as described previously (Kato,Y. et al., J. Bone Min.Res., 12:2014-2023 (1997)).
MLO-Y4 cells stably expressing nuclear green fluorescent protein (nGFP) were obtained using the retroviral vector containing the nGFP, provided by Dr. Charles O'Brien (University of Arkansas for Medical Sciences, Little Rock, Ark.). The SV40 large T antigen nuclear localization sequence (Kalderon,D., et al., Cell, 39:499-509 (1984)) was attached to the carboxy-terminus of the cDNA construct encoding nGFP and subcloned into the pLXSN retroviral vector (Clontech, Palo Alto, Calif.). The plasmid harboring the retroviral construct was transiently transfected into the packaging cell line Phoenix Eco (Grignani, F. et al., Cancer Res. 58:14-19 (1998)) using SuperFect (Qiagen, Santa Clarita, Calif.). Supernatants containing retroviral particles were collected 24-48 h after transfection, and used immediately to infect cell cultures. Subconfluent MLO-Y4 osteocytic cells were exposed to viral supernatants in the presence of 8 μg/ml polybrene for 8 h and then incubated in fresh culture medium for 16 hours. Subsequently, cells were exposed to the supernatants containing the viral particles once more before being trypsinized and plated at low density. Transduced cells were selected by culturing them in the presence of 400 μg/ml of geneticin (G418, Sigma Chemical Co., St. Louis, Mo.) for three weeks (Plotkin,L. I., et al., J. Clin. Invest. 104:1363-1374 (1999)).
Apoptosis was induced in semiconfluent cultures by treatment for the indicated times with the glucocorticoid, dexamethasone (10^−6 M, Sigma Chemical Co., St. Louis, Mo.) or with etoposide (50 μM, Sigma Chemical Co., St. Louis, Mo.). Inhibitors were added 30 minute before the addition of the pro-apoptotic agent at the following concentrations: the RNA synthesis inhibitor actinomycin D (2×10^−6M, Sigma Chemical Co., St. Louis, Mo.), the protein synthesis inhibitor cycloheximide (10^−6 M, Sigma Chemical Co., St. Louis, Mo.), the MEK inhibitor PD98059 (50 μM, New England Biolabs, Beverly, Mass.), the Src inhibitor PP1 (5 μM, BioSource International, Camarillo, Calif.), the p38 inhibitor SB203580 (10^−4 M, Sigma Chemical Co., St. Louis, Mo.), the P13K inhibitor wortmannin (30 nM, Sigma Chemical Co., St. Louis, Mo.), the JNK inhibitor SP600125 (3 μM, EMD Biosciences, Inc, San Diego, Calif.) or the caspase-3 inhibitor Asp-Glu-Val-Asp-aldehide (DEVD-CHO) (50 nM, Biomol Research Lab., Inc., Plymouth Meeting, Pa.).
Following the treatment with the pro-apoptotic agents, cells were fixed for 8 minutes with neutral buffer formalin and stored at 4° C. until analyzed.
Cells were transiently transfected using Lipofectamine Plus (Gibco BRL, Gaithersburg, Md.) as previously described (Plotkin,L. I. et. al., J. Biol.Chem. 277:8648-8657 (2002) and Kousteni, S. et al., Cell, 104:719-730 (2001)). Briefly, cells were cultured in the absence of serum or antibiotics for 3 hours in the presence of 20 μl/ml Plus reagent and 10 μl/ml Lipofectamine together with […] of each of the following DNA constructs: pCDNA3 vector (obtained from Clontech, Palo Alto, Calif.), wild type FAK (provided by Dr. Sandro Aruffo, Bristol-Myers Squibb Pharmaceutical Research Institute, Princeton, N.J. (Chan,P. Y. et al., Methods Mol Biol. 2000.;99.(1.):109.-25. 269:20567-20574 (1994)), or wild type Pyk2, kinase deficient Pyk2 mutant or autophosphorylation deficient Pyk2 mutant (provided by Dr. Wen-Cheng Xiong, University of Alabama at Birmingham, Birmingham, Ala. (Xiong,W. and Parsons,J. T., J Cell Biol 139:529-53(1997)).

MLO-Y4 osteocytic cells [2] = test: Quantification of cell detachment (number of cytoplasmic processes) in MLO-Y4 cells; format: cell-based, murine
Description: Apoptosis was induced in semiconfluent cultures by treatment for the indicated times with the glucocorticoid, dexamethasone (10^−6 M, Sigma Chemical Co., St. Louis, Mo.) or with etoposide (50 μM, Sigma Chemical Co., St. Louis, Mo.). […]
The effect of dexamethasone or etoposide on cell detachment was quantified by enumerating the number of cytoplasmic processes of MLO-Y4 cells expressing GFP. […]
Apoptosis and cell attachment were determined in the same cultures by examining nuclear morphology (FIG. 2A) and quantifying the number of cytoplasmic processes (FIG. 2B), respectively. Apoptosis was determined by examining nuclear fragmentation and chromatin condensation and cell detachment by quantifying the number of cytoplasmic processes in the same cells. […]

Cc1c2oc3c(C)ccc(C(=O)N[C@@H]4C(=O)N[C@H](C(C)C)C(=O)N5CCC[C@H]5C(=O)N(C)CC(=O)N(C)[C@@H](C(C)C)C(=O)O[C@@H]4C)c3nc-2c(C(=O)N[C@@H]2C(=O)N[C@H](C(C)C)C(=O)N3CCC[C@H]3C(=O)N(C)CC(=O)N(C)[C@@H](C(C)C)C(=O)O[C@@H]2C)c(N)c1=O [actinomycin D] (I: T[dV]P[Sar][NMeV] / II: T[dV]P[Sar][NMeV]; ester I:1-I:C, II:1-II:C; linker I:N-II:N via Actinocin(9to1))
effect on dexamethasone (glucocorticoid)-induced apoptosis (MLO-Y4 osteocytic cells [1]): dexamethasone was able to induce apoptosis

[Gd] [gadolinium]
effect on dexamethasone (glucocorticoid)-induced apoptosis (MLO-Y4 osteocytic cells [1]): abolished

C[C@@H]1C[C@@H]([C@H](O)CC2CC(=O)NC(=O)C2)C(=O)[C@@H](C)C1 [cycloheximide]
effect on dexamethasone (glucocorticoid)-induced apoptosis (MLO-Y4 osteocytic cells [1]): dexamethasone was able to induce apoptosis

COc1cc([C@@H]2c3cc4c(cc3[C@@H](O[C@@H]3O[C@@H]5CO[C@@H](C)O[C@H]5[C@H](O)[C@H]3O)[C@H]3COC(=O)[C@H]23)OCO4)cc(OC)c1O [etoposide]
apoptosis (nuclear fragmentation and chromatin condensation) (MLO-Y4 osteocytic cells [1]; 6 hours of treatment, dexamethasone 10^−6 M, etoposide 50 μM): induced apoptosis
apoptosis in cells overexpressing FAK (MLO-Y4 osteocytic cells [1]; transient transfection wild type FAK, 6 hours): not protected
apoptosis in cells overexpressing Pyk2 (MLO-Y4 osteocytic cells [1]; transient transfection wild type Pyk2, 6 hours): remained responsive
apoptosis in cells transfected with wild type Pyk2 vector (MLO-Y4 osteocytic cells [1]; transient transfection, co-transfected nGFP, 6 hours): exhibited apoptosis
number of cells exhibiting three or less cytoplasmic processes (cell attachment) (MLO-Y4 osteocytic cells [2]; dexamethasone: as early as after 1 h, etoposide: duration of the experiment): did not exhibit changes in cell attachment

C/C=C(/C)C(=O)O[C@H]1C(C)=C2[C@H]([C@@H]1OC(=O)CCCCCCC)[C@@](C)(OC(C)=O)C[C@H](OC(=O)CCC)[C@@]1(O)[C@H]2OC(=O)[C@@]1(C)O [thapsigargin]
effect on dexamethasone (glucocorticoid)-induced apoptosis (MLO-Y4 osteocytic cells [1]): had no effect

CC(=O)OCOC(=O)CN(CC(=O)OCOC(C)=O)c1ccccc1OCCOc1ccccc1N(CC(=O)OCOC(C)=O)CC(=O)OCOC(C)=O [BAPTA-AM]
effect on dexamethasone (glucocorticoid)-induced apoptosis (MLO-Y4 osteocytic cells [1]): abolished

Asp-Glu-Val-Asp-aldehide (DEVD-aldehyde)
effect on dexamethasone (glucocorticoid)-induced apoptosis (MLO-Y4 osteocytic cells [1]): abolished
effect on dexamethasone-induced changes in cell attachment (MLO-Y4 osteocytic cells [2]; inhibitor added 30 minute before dexamethasone 10^−6 M): did not reverse
